Source: patent US20230132823A1, “BI-FUNCTIONAL COMPOUNDS AND METHODS FOR TARGETED UBIQUITINATION OF ANDROGEN RECEPTOR” (MONTELINO THERAPEUTICS, INC., priority 2020, published 2023)

Experiments:
[1] = test system: 22Rv1-Enz^R; assay: 22Rv1-Enz^R cell proliferation assay, GIC50 (Experimental Example 4); type: cell-based; conditions: Homo sapiens; 6-day culture, cell media changed every 24 hours
Description: Selected compounds were tested in the human prostate cancer cell line, 22Rv1-Enz^R as described in Geun Taek Lee et al., Molecular Cancer Therapeutics, 20:490-9 (2021). These procedures are similar to that described in Experimental Example 1, above, except that the assay conditions are a 6-day culture with cell media changed every 24 hours.
In the Table: (+)—GIC50<20 μM; (++)—GIC50<10 μM; (+++)—GIC50<1 μM.

[2] = molecular target: T1, glucocorticoid receptor (GR) (Homo sapiens, UniProt P04150); assay: Immunoblot of GR in 22Rv1 cells; type: cell-based; conditions: 22Rv1, 24 hours, up to 10 μM
T1 construct: endogenous in cells; host or cells: 22Rv1
T1 sequence (P04150 1-777): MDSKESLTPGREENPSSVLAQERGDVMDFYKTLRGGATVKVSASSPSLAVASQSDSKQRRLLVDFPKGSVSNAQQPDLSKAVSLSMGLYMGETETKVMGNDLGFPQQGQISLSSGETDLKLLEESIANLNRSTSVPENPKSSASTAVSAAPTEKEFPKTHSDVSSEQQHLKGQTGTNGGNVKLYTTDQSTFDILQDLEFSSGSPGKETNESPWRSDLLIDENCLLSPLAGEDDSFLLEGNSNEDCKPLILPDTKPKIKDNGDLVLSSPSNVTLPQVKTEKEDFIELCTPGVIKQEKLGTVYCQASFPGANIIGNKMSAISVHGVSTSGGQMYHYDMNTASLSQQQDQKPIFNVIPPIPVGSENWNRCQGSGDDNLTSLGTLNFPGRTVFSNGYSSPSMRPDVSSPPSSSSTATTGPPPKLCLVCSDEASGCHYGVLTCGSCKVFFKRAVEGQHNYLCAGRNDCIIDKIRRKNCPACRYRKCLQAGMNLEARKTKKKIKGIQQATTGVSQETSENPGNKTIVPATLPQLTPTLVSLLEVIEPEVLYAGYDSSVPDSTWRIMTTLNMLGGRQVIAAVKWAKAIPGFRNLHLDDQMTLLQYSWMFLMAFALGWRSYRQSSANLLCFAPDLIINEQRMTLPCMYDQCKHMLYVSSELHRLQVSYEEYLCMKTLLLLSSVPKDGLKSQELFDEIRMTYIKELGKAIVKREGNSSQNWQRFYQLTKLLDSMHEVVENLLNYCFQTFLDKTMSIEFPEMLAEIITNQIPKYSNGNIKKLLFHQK
Description: (§1) Cell Culture. Human CaP cell lines, LNCaP, 22Rv1, VCaP, PC3, and DU145 are obtained from the American Type Culture Collection (ATCC) and maintained in the standard culture media: RPMI-1640 supplemented with 10% fetal bovine serum (FBS). LNCaP, 22Rv1, and VCaP are androgen-responsive cell lines, while PC3 and DU145 are not. To establish SAT resistant CaP cell lines, LNCaP, 22Rv1, and VCaP are treated continuously with 10-50 μM abiraterone, apalutamide, darolutamide, or enzalutamide. After 3-6 months, stable cell lines are established and designated as LNCaP-Abi^R, LNCaP-Apa^R, LNCaP-Daro^R, LNCaP-Enz^R, VCaP-Abi^R, VCaP-Apa^R, VCaP-Daro^R, VCaP-Enz^R, 22Rv1-Abi^R, 22Rv1-Apa^R, 22Rv1-Daro^R and 22Rv1-Enz^R. Unless otherwise specified, the standard culture media for these SAT-resistant cell lines included 10 μM of their respective SAT. For the proteasome inhibitor study, the inhibitors MG132 and Epoxomicin are used. The E3 ligase inhibitors Heclin, Nutlin 3a, Thalidomide, and VH298 are used. […] Mycoplasma contamination is also assessed using a PCR based detection system.
(§2) Immunoblot Analysis. […] Cell lysates are then centrifuged and protein in the supernatant is quantified. […] Following the incubation with appropriate secondary antibody, immunoblots are analyzed using SuperSignal West Femto Maximum Sensitivity Substrate (ThermoFisher).

[3] = test system: DU145; assay: DU145 cell proliferation; type: cell-based, human; conditions: AR-negative cell line; 1 μM
Description: (§3) The human prostate cancer cell line, 22Rv1 has been reported to express a high level of AR-V7. Thus, 22Rv1 was seeded at 50,000 cells/well on a 24-well plate in quadruplicates and treated with test compound in concentrations ranging up to 20 μM for four days. Standard culture media was RPMI-1640 supplemented with 10% fetal bovine serum. The test compound initially was dissolved in DMSO at 50 mM. This stock solution was then diluted as needed for the indicated concentrations. At the end of the four-day period, cells were harvested using 1% trypsin and counted using an automated cell counter.
(§4) Cell Culture. Human CaP cell lines, LNCaP, 22Rv1, VCaP, PC3, and DU145 are obtained from the American Type Culture Collection (ATCC) and maintained in the standard culture media: RPMI-1640 supplemented with 10% fetal bovine serum (FBS). LNCaP, 22Rv1, and VCaP are androgen-responsive cell lines, while PC3 and DU145 are not. To establish SAT resistant CaP cell lines, LNCaP, 22Rv1, and VCaP are treated continuously with 10-50 μM abiraterone, apalutamide, darolutamide, or enzalutamide. […] Mycoplasma contamination is also assessed using a PCR based detection system.

[4] = test system: 22Rv1 cells transfected with AR-V7 or AR-FL; assay: Proliferation of 22Rv1 cells transfected with AR-V7 and/or AR-FL; type: cell-based, human; conditions: 1 μM
Description: Transient Transfections. One μg of a plasmid containing cDNA of AR-V7 or AR-FL is transfected into indicated the CaP cell lines on 6-well plates. Three μl of lipofectamine 3000 is used for each transfection.

[5] = test system: AR-FL and AR-V7 mRNA; assay: mRNA levels of AR-FL and AR-V7 (quantitative PCR); type: cell-based, human
[6] = test system: SAT-resistant CaP cell lines; assay: Cell proliferation assay in twelve SAT-resistant CaP cell lines; type: cell-based, human; conditions: 1 μM, 6 days; all lines except 22Rv1-EnzR
Description: Cell Culture. Human CaP cell lines, LNCaP, 22Rv1, VCaP, PC3, and DU145 are obtained from the American Type Culture Collection (ATCC) and maintained in the standard culture media: RPMI-1640 supplemented with 10% fetal bovine serum (FBS). LNCaP, 22Rv1, and VCaP are androgen-responsive cell lines, while PC3 and DU145 are not. To establish SAT resistant CaP cell lines, LNCaP, 22Rv1, and VCaP are treated continuously with 10-50 μM abiraterone, apalutamide, darolutamide, or enzalutamide. After 3-6 months, stable cell lines are established and designated as LNCaP-Abi^R, LNCaP-Apa^R, LNCaP-Daro^R, LNCaP-Enz^R, VCaP-Abi^R, VCaP-Apa^R, VCaP-Daro^R, VCaP-Enz^R, 22Rv1-Abi^R, 22Rv1-Apa^R, 22Rv1-Daro^R and 22Rv1-Enz^R. Unless otherwise specified, the standard culture media for these SAT-resistant cell lines included 10 μM of their respective SAT. For the proteasome inhibitor study, the inhibitors MG132 and Epoxomicin are used. The E3 ligase inhibitors Heclin, Nutlin 3a, Thalidomide, and VH298 are used. Cell lines obtained from ATCC are confirmed by checking their morphology using optical microscopy, establishing baselines for cell proliferation, verifying species of origin using isoenzymology, and characterizing the cell's DNA fingerprint using short tandem repeat (STR) profiling. Mycoplasma contamination is also assessed using a PCR based detection system. […]

[7] = test system: LNCaP; assay: LNCaP cell proliferation; type: cell-based, human; conditions: androgen-responsive cell line; 1 μM
Description: as §3, §4

[8] = test system: progesterone receptor (PR) a and b; assay: Immunoblot of PR in 22Rv1 cells; type: cell-based, human; conditions: 22Rv1, 24 hours, up to 10 μM
Description: as §1, §2

- IC50 [1]: < 1000 nM
- effect on expression level of glucocorticoid receptor (GR) [2]: no visible effect
SMILES: Cc1ncsc1-c1ccc([C@H](C)NC(=O)[C@@H]2C[C@@H](O)CN2C(=O)[C@@H](NC(=O)CCCCNC(=O)COc2c(-c3csc(N4CCOCC4)n3)ccc(F)c2F)C(C)(C)C)cc1 [Example 16, (2S,4R)-1-((S)-2-(5-(2-(2,3-difluoro-6-(2-morpholinothiazol-4-yl)phenoxy)acetamido)pentanamido)-3,3-dimethylbutanoyl)-4-hydroxy-N-((S)-1-(4-(4-methylthiazol-5-yl)phenyl)ethyl)pyrrolidine-2-carboxamide]
- effect on DU145 cells [3]: not affected
- inhibitory effect after transfection of both AR-V7 and AR-FL into 22Rv1 cells ([4]; both transfected): completely abrogated
- inhibitory effect after transfecting AR-V7 or AR-FL into 22Rv1 cells ([4]; single transfection): partial resistance
- effect on mRNA levels of AR-FL and AR-V7 [5]: no major effect
- cell counts of SAT-resistant CaP cell lines, % of control [6]: 6-80 % of control
- effect on proliferation of LNCaP [7]: inhibits the proliferation
- effect on expression level of progesterone receptor (PR) a and b [8]: no visible effect
